Measurements: patent US10870638B2, “Pyridazinone compound or its salt, and herbicide containing it” (ISHIHARA SANGYO KAISHA, LTD., priority 2016, dated 2020)

Tests used:
Type in all cases: in vivo
Conditions in all cases: 14th day after application
[1] = system: green foxtail (Setaria viridis L.); experiment: Test Example 2: soil application on the day after sowing, growth inhibition rate on 14th day
Procedure, shortened: (§1)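 Herbicidal effect is assessed on pot-grown plants after a soil spray applied the day after sowing at prescribed active ingredient rates. Scoring occurs visually at day 14 as growth inhibition (%).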

[2] = system: soybean (Glycine max Merr.); experiment: as above
Procedure, shortened: as §1

[3] = system: velvetleaf (Abutilon theophrasti MEDIC.); experiment: as above
Procedure, shortened: as §1

[4] = system: prickly sida (Sida spinosa L.); experiment: as above
Procedure, shortened: as §1

[5] = system: corn (Zea mays L.); experiment: as above
Procedure, shortened: as §1

[6] = system: crabgrass (Digitaris sanquinalis L.); experiment: as above
Procedure, shortened: as §1

[7] = system: barnyardgrass (Echinochloa crus-qalli L.); experiment: as above
Procedure, shortened: as §1

[8] = system: redroot pigweed (Amaranthus retroflexus L.); experiment: as above
Procedure, shortened: as §1

[9] = system: rice (Oryza sativa L.); experiment: as above
Procedure, shortened: as §1

[10] = system: wheat (Triticum aestivum L.); experiment: as above
Procedure, shortened: as §1

[11] = system: green foxtail (Setaria viridis L.); experiment: Test Example 1: foliar treatment, growth inhibition rate on 14th day
Procedure, shortened: (§2)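 Using a small sprayer, formulated compound in water (0.1 vol % surfactant, 1,000 L/ha) was applied to seedlings grown from seed in upland soil. Fourteen days on, growth state was observed and expressed as percent inhibition from 0 to 100.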

[12] = system: soybean (Glycine max Merr.); experiment: as above
Procedure, shortened: as §2

[13] = system: corn (Zea mays L.); experiment: as above
Procedure, shortened: (§3)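 Visual 0–100% inhibition scoring (100 = complete kill) at 14 days after foliar treatment of soil-grown seedlings at species-specific leaf stages, with the compound sprayed as a wettable powder or emulsifiable concentrate dilution.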

[14] = system: barnyardgrass (Echinochloa crus-qalli L.); experiment: as above
Procedure, shortened: as §3

[15] = system: crabgrass (Digitaria sanquinalis L.); experiment: as above
Procedure, shortened: as §3

[16] = system: redroot pigweed (Amaranthus retroflexus L.); experiment: as above
Procedure, shortened: as §3

[17] = system: rice (Oryza sativa L.); experiment: as above
Procedure, shortened: as §2

[18] = system: wheat (Triticum aestivum L.); experiment: as above
Procedure, shortened: as §3

[19] = system: italian ryegrass (Lolium multiflorum Lam.); experiment: as above
Procedure, shortened: as §3

[20] = system: wild oat (Avena fatua L.); experiment: as above
Procedure, shortened: as §2

[21] = active ingredient amount 31 g/ha
[22] = active ingredient amount 500 g/ha

Row | Structure (SMILES) | Growth inhibition rate (%) Green foxtail [1, 21] [%] | Growth inhibition rate (%) Soybean [2, 21] [%] | Growth inhibition rate (%) Velvetleaf [3, 21] [%] | Growth inhibition rate (%) Prickly sida [4, 21] [%] | Growth inhibition rate (%) Corn [5, 21] [%] | Growth inhibition rate (%) Crabgrass [6, 21] [%] | Growth inhibition rate (%) Barnyardgrass [7, 21] [%] | Growth inhibition rate (%) Redroot pigweed [8, 21] [%] | Growth inhibition rate (%) Rice [9, 21] [%] | Growth inhibition rate (%) Wheat [10, 21] [%] | Growth inhibition rate (%) Green foxtail [11, 21] [%] | Growth inhibition rate (%) Soybean [12, 21] [%] | Growth inhibition rate (%) Corn [13, 21] [%] | Growth inhibition rate (%) Barnyardgrass [14, 21] [%] | Growth inhibition rate (%) Crabgrass [15, 21] [%] | Growth inhibition rate (%) Redroot pigweed [16, 21] [%] | Growth inhibition rate (%) Rice [17, 21] [%] | Growth inhibition rate (%) Wheat [18, 21] [%] | Growth inhibition rate (%) Italian ryegrass [19, 21] [%] | Growth inhibition rate (%) Wild oat [20, 21] [%] | further results
1 | Cc1ccc(Oc2cc(C(F)(F)F)c(C(F)(F)F)cn2)cc1-c1c(O)c(C)nn(C)c1=O [Compound 2-93] | 99 | 0 | 0 | 0 | 0 | 99 | 100 | 0 | 0 | 0 | 100 | 10 | 95 | 100 | 99 | 20 | 0 | 0 | 88 | 30 | –
2 | Cc1ccc(Oc2ncc(Br)cc2Cl)cc1-c1c(O)c(C)nn(C)c1=O [Compound 2-101] | 95 | 0 | 0 | 0 | 20 | 93 | 78 | 0 | 0 | 10 | 88 | 20 | 80 | 75 | 85 | 0 | 0 | 0 | 50 | 70 | –
3 | Cc1ccc(Oc2ccc3ccccc3n2)cc1-c1c(O)c(C)nn(C)c1=O [Compound 2-108] | – | – | – | – | – | – | – | – | – | – | – | – | – | – | – | – | – | – | – | – | Growth inhibition rate (%) Green foxtail [1, 22]: 93%; Growth inhibition rate (%) Soybean [2, 22]: 0%; Growth inhibition rate (%) Velvetleaf [3, 22]: 0%; Growth inhibition rate (%) Prickly sida [4, 22]: 0%; Growth inhibition rate (%) Corn [5, 22]: 0%; Growth inhibition rate (%) Crabgrass [6, 22]: 98%; Growth inhibition rate (%) Barnyardgrass [7, 22]: 100%; Growth inhibition rate (%) Redroot pigweed [8, 22]: 0%; Growth inhibition rate (%) Rice [9, 22]: 93%; Growth inhibition rate (%) Wheat [10, 22]: 0%; Growth inhibition rate (%) Green foxtail [11, 22]: 95%; Growth inhibition rate (%) Soybean [12, 22]: 20%; Growth inhibition rate (%) Corn [13, 22]: 10%; Growth inhibition rate (%) Barnyardgrass [14, 22]: 100%; Growth inhibition rate (%) Crabgrass [15, 22]: 85%; Growth inhibition rate (%) Redroot pigweed [16, 22]: 0%; Growth inhibition rate (%) Rice [17, 22]: 93%; Growth inhibition rate (%) Wheat [18, 22]: 50%; Growth inhibition rate (%) Italian ryegrass [19, 22]: 10%; Growth inhibition rate (%) Wild oat [20, 22]: 50%
4 | Cc1ccc(Oc2cnc3ccccc3c2)cc1-c1c(O)c(C)nn(C)c1=O [Compound 2-112] | – | – | – | – | – | – | – | – | – | – | – | – | – | – | – | – | – | – | – | – | Growth inhibition rate (%) Green foxtail [1, 22]: 100%; Growth inhibition rate (%) Soybean [2, 22]: 0%; Growth inhibition rate (%) Velvetleaf [3, 22]: 0%; Growth inhibition rate (%) Prickly sida [4, 22]: 0%; Growth inhibition rate (%) Corn [5, 22]: 0%; Growth inhibition rate (%) Crabgrass [6, 22]: 100%; Growth inhibition rate (%) Barnyardgrass [7, 22]: 100%; Growth inhibition rate (%) Redroot pigweed [8, 22]: 0%; Growth inhibition rate (%) Rice [9, 22]: 70%; Growth inhibition rate (%) Wheat [10, 22]: 20%; Growth inhibition rate (%) Green foxtail [11, 22]: 100%; Growth inhibition rate (%) Soybean [12, 22]: 0%; Growth inhibition rate (%) Corn [13, 22]: 93%; Growth inhibition rate (%) Barnyardgrass [14, 22]: 99%; Growth inhibition rate (%) Crabgrass [15, 22]: 98%; Growth inhibition rate (%) Redroot pigweed [16, 22]: 20%; Growth inhibition rate (%) Rice [17, 22]: 93%; Growth inhibition rate (%) Wheat [18, 22]: 80%; Growth inhibition rate (%) Italian ryegrass [19, 22]: 90%; Growth inhibition rate (%) Wild oat [20, 22]: 90%
5 | CC(=O)Oc1c(C)nn(C)c(=O)c1-c1cc(Oc2ncc(C(F)(F)F)cc2C(F)(F)F)ccc1C [Compound 2-116] | 100 | 0 | 0 | 0 | 85 | 100 | 100 | 0 | 0 | 60 | 100 | 10 | 100 | 100 | 100 | 0 | 90 | 99 | 100 | 100 | –
6 | CC(=O)Oc1c(C)nn(C)c(=O)c1-c1cc(Oc2nc3ccc(C(F)(F)F)nc3o2)ccc1C [Compound 2-121] | 100 | 0 | 0 | 0 | 20 | 98 | 100 | 0 | 0 | 0 | 100 | 0 | 20 | 100 | 98 | 20 | 90 | 78 | 98 | 98 | –
7 | CC(=O)Oc1c(C)nn(C)c(=O)c1-c1cc(Oc2cc(C(F)(F)F)c(C(F)(F)F)cn2)ccc1C [Compound 2-126] | 100 | 0 | 0 | 0 | 30 | 98 | 100 | 0 | 0 | 10 | 100 | 20 | 100 | 100 | 100 | 0 | 93 | 99 | 100 | 100 | –
8 | CC(=O)Oc1c(C)nn(C)c(=O)c1-c1cc(Oc2ccc3cc(Br)ccc3n2)ccc1C [Compound 2-127] | 78 | 0 | 0 | 0 | 0 | 10 | 93 | 0 | 0 | 0 | 100 | 0 | 0 | 100 | 30 | 0 | 70 | 100 | 78 | 90 | –
9 | CC(=O)Oc1c(C)nn(C)c(=O)c1-c1cc(Oc2ncc(Br)cc2Cl)ccc1C [Compound 2-135] | 90 | 10 | 0 | 0 | 0 | 75 | 90 | 0 | 0 | 0 | 95 | 0 | 93 | 93 | 90 | 0 | 80 | 88 | 95 | 90 | –
